Test results published in patent US20200290950A1, “ALKAMIDE COMPOUNDS AND USES THEREOF” (NORTH CAROLINA STATE UNIVERSITY, priority 2017, published 2020).

Legend:
RBL-2H3 cells [1] = experiment: β-Hexosaminidase release assay (Example 3); format: cell-based, rat
Method: FIGS. 21A-21D. The inhibition of degranulation is dependent on the length of the alkamide fatty acid chain. RBL-2H3 cells were plated overnight, stimulated with 1 μM A23187 (FIG. 21A) or 5 ng/mL DNP-BSA (FIG. 21B) for 1 h in the absence or presence of each compound. Graphs display the mean percent β-hex release. Data are presented as the mean of 4 experiments. Percent inhibition of degranulation of A23187 (FIG. 21C) or DNP-BSA (FIG. 21D) using data from A and B, respectively. *P<0.05, **P<0.01, ***P<0.001, one-way ANOVA with Dunnett's post hoc test compared to vehicle (A, B) or A15 (C, D).
RBL-2H3 cells (1.0×10^5 cells) were incubated with or without 0.1 μg/mL of IgE-DNP overnight in a 96 well plate at 37° C. with 5% CO2. The cells were washed with Tyrode's buffer and assayed with few modifications (Kuehn, Radinger, & Gilfillan, 2010). Briefly, IgE-DNP sensitized cells were stimulated 1 hour with 5 ng/mL of DNP-BSA in the absence or presence of each compound and incubated at 37° C. with 5% CO2. For experiments using only A23187 as the stimulant, cells were washed with Tyrode's buffer and stimulated 1 hour with 1 μM A23187 in the absence or presence of each compound and incubated at 37° C. with 5% CO2. The stimulated cells were centrifuged at 1200×g for 5 minutes. The supernatant or cell lysate (30 μL) was incubated with 3.4 mg/mL of p-NAG (10 μL) for 1 hour at 37° C. The reaction was terminated by addition of 0.2 M sodium carbonate (pH 10) and the absorbance was read at OD405 nm on a BioTek Synergy HT microplate reader. The total 3-hexosaminidase released from the cell was calculated as the difference between the OD of the supernatant and blank plus the difference between the OD of the lysate and blank. The percent β-hexosaminidase released from the cell was calculated as the difference between the OD of the supernatant and blank divided by the total β-hexosaminidase released from the cell multiplied by 100: ODsupernatant−ODblank/[(ODlysate−ODblank)+(ODsupernatant−ODblank)]*100.

RBL-2H3 cells [2] = experiment: TNF-α ELISA, 18 hrs (Example 3); format: cell-based, rat; settings: 1 μM A23187, 18 hours
Method: FIGS. 25A-25B. […] RBL-2H3 cells were plated overnight and stimulated with 1 μM A23187 in the absence or presence of each alkamide for 18 h. Culture supernatants were analyzed for TNF-α levels by ELISA and experiments were performed in triplicate (FIG. 25A). Percent inhibition of TNF-α secretion for each alkamide listed in FIG. 25B. *P<0.05, **P<0.01, ***P<0.001, one-way ANOVA with Dunnett's post hoc test compared to vehicle (FIG. 25A) or A15 (FIG. 25B).
RBL-2H3 cells (1.0×10^5 cells) were incubated overnight in a 24 well plate at 37° C. with 5% CO2. Cells were washed with 1×PBS and stimulated with 1 μM A23187 for 18 hrs in the absence or presence of each compound. The cells were centrifuged (1200×g, 5 min) and the supernatants were collected. The concentration of TNF-α in the supernatants were determined using the TNF-α ELISA kit.

RBL-2H3 cells [3] = experiment: Calcium assay, Fluo-4 (Example 3); format: cell-based, rat
Method: FIGS. 22A-22D. The alkamide fatty acid is necessary for inhibition of calcium influx. RBL-2H3 cells were plated overnight, incubated with Fluo-4 AM for 1 h, stimulated by 1 μM A23187 (FIG. 22A) or 5 ng/mL DNP-BSA (FIG. 22B) in the absence or presence of each alkamide, and fluorescence was read for 2 mins every 5 secs. Data are presented as the mean change in RFU of 4 experiments. Percent inhibition of calcium influx was calculated for A23187 (FIG. 22C) and DNP-BSA (FIG. 22D) stimulated cells at 2 mins. *P<0.05, **P<0.01, and ***P<0.001 one-way ANOVA with Dunnett's post hoc test compared to A15.
RBL-2H3 cells (1.0×10^5 cells) were incubated overnight in a 96 well black-wall clear bottom plate with or without IgE-DNP (0.1 μg/mL) at 37° C. with 5% CO2. The assay was performed using the Fluo-4 Direct™ Calcium Assay Kit according to the manufacturer's instruction. Briefly, cells were incubated with the Fluo-4 Direct calcium reagent loading solution for 30 minutes at 37° C. with 5% CO2 then 30 mins at room temperature. Prior to stimulation, the well baseline fluorescence was measured every 5 seconds over 1 minute using a BioTek Synergy HT microplate reader with 485/20 nm excitation and 528/20 nm emission filters. Cells were stimulated with 1 μM A23187 or 5 ng/mL DNP (IgE-DNP) in the absence or presence of each compound, and the fluorescence was measured every 5 seconds over 2 minutes. The change in fluorescence (ΔRT) was calculated as the sample fluorescence minus the baseline fluorescence for each well.

RAW 264.7 cells = settings: LPS-stimulated RAW 264.7 cells, literature; cited from earlier work
[4] = biological target: cannabinoid type 2 receptor (CB2) (Homo sapiens, UniProt P34972); settings: Raduner et al., 2006; cited from earlier work
cannabinoid type 2 receptor (CB2), sequence (P34972 whole entry, species assumed): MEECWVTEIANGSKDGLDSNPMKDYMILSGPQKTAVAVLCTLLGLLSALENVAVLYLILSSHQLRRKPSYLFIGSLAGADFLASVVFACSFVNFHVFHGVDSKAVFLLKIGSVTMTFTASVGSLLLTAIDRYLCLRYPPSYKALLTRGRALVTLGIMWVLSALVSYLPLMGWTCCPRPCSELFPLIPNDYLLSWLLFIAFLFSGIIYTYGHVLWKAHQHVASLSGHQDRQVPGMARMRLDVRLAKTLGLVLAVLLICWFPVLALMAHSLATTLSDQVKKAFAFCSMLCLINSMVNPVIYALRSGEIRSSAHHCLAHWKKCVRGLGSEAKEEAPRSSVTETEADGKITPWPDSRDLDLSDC

RBL-2H3 cells [5] = experiment: Fluo-4 calcium assay, RBL-2H3 cells (Example 1); format: cell-based, rat; settings: RBL-2H3 cells, 1 μM A23187, microscopy, n=5 fields
Method: FIGS. 3A-3H. A15 inhibits calcium influx in RBL-2H3 cells and BMMCs. RBL-2H3 cells (FIGS. 3A-3D) and BMMCs (FIGS. 3E-3H) were plated and incubated overnight prior to treatments. For DNP-BSA treatments, overnight incubation also included 1 μg/mL IgE anti-DNP. Prior to stimulation, cells were washed and loaded with the fluorescent, calcium-sensitive dye fluo-4 AM using the Fluo-4 AM Direct™ Calcium Assay Kit and fluorescence was measured on a microplate reader. Calcium influx was triggered in all experiments using either 1 μM A23187 or 50 ng/mL DNP-BSA, as indicated. Bar graphs represent the means±SEM of the Δ in RFU's at 1 min post-A23187- or DNP-BSA-stimulation from 3 independent experiments (FIGS. 3B, 3D, 3F, 3H). Statistical analysis was performed using a one-way ANOVA with Dunnett's post-hoc test, *p<0.05, **p<0.01, ***p<0.001.
FIG. 9. A15 inhibits calcium influx in RBL-2H3 cells. Prior to stimulation, cells were washed and loaded with the fluorescent, calcium-sensitive dye fluo-4 AM using the Fluo-4 AM Direct™ Calcium Assay Kit. Cells were treated with 100 μM A15 (D, E, F), 0.25% ethanol only (vehicle) (A, B, C), 1 μM A23187 (G, H, I), and 100 μM A15 in combination with 1 μM A23187 (J, K, L) as indicated. Images were acquired at 30, 60, and 120 seconds, post-stimulation. Images are representative of several experiments.
RBL-2H3, BMMC, RAW 264.7, or Jurkat cells were plated in clear-bottom, black, 96-well plates (BioExpress, Kaysville, Utah) and incubated overnight with media only or media containing IgE anti-DNP. Cells were loaded with the calcium-sensitive dye fluo-4 AM using the Fluo-4 Direct™ Calcium Assay Kit (Thermo Fisher Scientific) according to the manufacturer's instructions by incubating at 37° C. for 30 min followed by 30 min at room temperature. Prior to stimulation, baseline fluorescent readings were measured from triplicate wells in 5 s intervals for 1 min using a Synergy HT microplate reader with 485/20 nm excitation and 528/20 nm emission filters. Cells were then treated with either 1 μM A23187 or 50 ng/mL DNP-BSA prepared in calcium- and magnesium-containing or calcium- and magnesium-free HBSS with 20 mM HEPES, and fluorescence was measured in 10 s intervals for 2 min. The final concentration of ethanol was 0.25% in these assays. The average baseline fluorescence of each well was subtracted from the stimulated fluorescent values to calculate the change (Δ) in RFU's and graphed as shown.
Cells loaded with fluo-4 were treated and observed with an Axioskop 2 microscope (Zeiss, Oberkochen, Germany) using a fluorescent illuminator HXP-120 light source and images were acquired at 30, 60, or 120 sec after stimulation with a AxioCam MRc5 camera (Zeiss) and AxioVision software (Zeiss).

SMILES	percent inhibition of degranulation (RBL-2H3 cells [1]; 5 ng/mL DNP-BSA, 1 hour) [%]	percent inhibition of degranulation (RBL-2H3 cells [1]; 1 μM A23187, 1 hour) [%]	percent inhibition of TNF-α secretion (RBL-2H3 cells [2]) [%]	percent inhibition of calcium influx (RBL-2H3 cells [3]; 5 ng/mL DNP-BSA, at 2 minutes) [%]	other results
CCCCCCCCCC(=O)NCC(C)C [YM8-86, N-Isobutyldecanamide]	46	59	50	40	percent inhibition of calcium influx (RBL-2H3 cells [3]; 1 μM A23187, at 2 minutes): 92%
CCCCCC(=O)NCC(C)C [YM5-47, N-Isobutylhexanamide]	36	51	47	38	–
CCCC(=O)NCC(C)C [YM8-87, N-Isobutylbutyramide]	12	11	–	–	rank as inhibitor of calcium influx (RBL-2H3 cells [3]; A23187 and DNP-BSA stimulation): least effective inhibitor of calcium influx
CCCCCCCCCCCC(=O)NCC(C)C [YM5-27, N-Isobutyldodecanamide]	33	40	76	65	TNF-α production (RAW 264.7 cells): best inhibitors; percent inhibition of calcium influx (RBL-2H3 cells [3]; 1 μM A23187, at 2 minutes): 79%
CCN(CC)CCCCCCCCOC(=O)c1cc(OC)c(OC)c(OC)c1 [TMB-8, 3,4,5-trimethoxybenzoic acid 8-(diethylamino) octyl ester, reference compound]	–	–	–	–	β-hex release (RBL-2H3 cells [1]; 5 ng/mL DNP-BSA, 1 h): also inhibited; β-hex release (RBL-2H3 cells [1]; 1 μM A23187, 1 h): significantly inhibited β-hex release; calcium response (Fluo-4 fluorescence over 2 min) (RBL-2H3 cells [3]; 5 ng/mL DNP-BSA): decreased rate of calcium entering the cytosol; calcium response (Fluo-4 fluorescence over 2 min) (RBL-2H3 cells [3]; 1 μM A23187): decreased rate of calcium entering the cytosol
C/C=C\C=C/CC/C=C/C=C/C(=O)NCC(C)C [A11a/b, dodeca-2E,4E,8Z,10Z(E)-tetraenoic acid isobutylamide, reference compound]	–	–	–	–	binding to CB2 [4]: shown to bind; TNF-α production (RAW 264.7 cells): reduced TNF-α production
CNc1ccc2oc(C[C@H]3O[C@@]4(CC[C@H]3C)O[C@H]([C@H](C)C(=O)c3ccc[nH]3)[C@H](C)C[C@H]4C)nc2c1C(=O)O [A23187, reference compound]	–	–	–	–	increase in fluorescence (pixel intensity) (RBL-2H3 cells [5]): 158.4%
